Test results reported in US12558342B2, “2-[2-({12,12-dimethyl-4-oxo-6-phenyl-3,11-dioxatricyclo[8.4.0.0,2,7]tetradeca-1,5,7,9-tetraen-8-yl}oxy)acetamido]benzamide and derivatives as inhibitor of clock:bmal1 interaction for the treatment of circadian rhythm diseases and disorders” (KOC UNIVERSITESI, priority 2019, dated 2026).

What was measured:
CLOCK, BMAL1 and CRY1 = test: In vivo study in mouse liver, Western blot; conditions: 25 mg/kg i.p., 6 h
Procedure: Male C57BL/6J mice, 8 weeks of age, weighing 18-24 g were treated with two different single doses of CLK8 (25 mg/kg n=5 per each dose) intraperitoneally. Control mice (n=3) were only treated with vehicle (DMSO:Cremophor EL: 0.9% NaCl; 2.5:15:82.5, v/v, i.p.). Water and food were provided ad libitum throughout the experiments. Six hours after injection, mice were sacrificed by cervical dislocation. Liver tissues were removed, frozen in liquid nitrogen and stored at −80° C. until further processing.

[1] = target: T1, CLOCK-F80A-K220A and BMAL1 interaction (Homo sapiens, UniProt O15516, F80A/K220A); test: Co-immunoprecipitation of FLAG-CLOCK-F80A-K220A and BMAL1; format: biochemical; conditions: 40 μM
T1 construct: expressed in transfected cells; host or cells: HEK 293T
T1 sequence (O15516 1-846 F80A/K220A): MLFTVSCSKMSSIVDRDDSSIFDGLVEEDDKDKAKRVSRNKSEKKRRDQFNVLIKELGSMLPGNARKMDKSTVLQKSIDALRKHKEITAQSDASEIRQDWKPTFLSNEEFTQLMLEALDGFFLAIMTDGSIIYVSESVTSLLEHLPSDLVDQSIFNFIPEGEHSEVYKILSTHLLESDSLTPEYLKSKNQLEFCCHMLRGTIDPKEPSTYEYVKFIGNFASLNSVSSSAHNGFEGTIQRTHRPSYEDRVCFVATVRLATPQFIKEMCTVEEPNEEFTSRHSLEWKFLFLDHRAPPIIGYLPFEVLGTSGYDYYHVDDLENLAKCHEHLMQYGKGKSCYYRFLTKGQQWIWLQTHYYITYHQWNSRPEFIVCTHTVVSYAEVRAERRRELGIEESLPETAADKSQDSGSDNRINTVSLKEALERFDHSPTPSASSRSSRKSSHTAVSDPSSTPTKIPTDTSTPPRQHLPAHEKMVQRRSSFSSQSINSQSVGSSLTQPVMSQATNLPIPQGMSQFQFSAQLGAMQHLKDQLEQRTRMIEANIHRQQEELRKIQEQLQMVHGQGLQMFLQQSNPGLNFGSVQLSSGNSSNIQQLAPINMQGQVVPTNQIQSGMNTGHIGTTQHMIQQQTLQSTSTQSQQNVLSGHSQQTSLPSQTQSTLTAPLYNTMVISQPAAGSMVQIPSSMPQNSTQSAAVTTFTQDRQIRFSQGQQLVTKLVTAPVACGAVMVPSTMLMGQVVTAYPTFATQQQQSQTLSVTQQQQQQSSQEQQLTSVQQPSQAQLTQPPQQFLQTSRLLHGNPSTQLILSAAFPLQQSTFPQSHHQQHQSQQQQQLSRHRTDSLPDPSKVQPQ
Procedure: HEK 293T cells co-expressing wild type or F80A-K220A mutant FLAG-tagged Clock together with tag-free Bmal1 were lysed with ice-cold lysis buffer (50 mM Tris-HCl PH 7.7, 150 mM NaCl, 0.1% Triton X-100, 1 mM PMSF and protease inhibitor cocktail) and centrifuged at 15000×g at 4° C. for 20 minutes. DMSO and different concentrations of CLK8 were added to the whole cell lysate. The mixtures were incubated with anti-FLAG M2 affinity gel (Sigma-Aldrich) at 4° C. overnight with continuous mixing. After three wash steps, bound proteins were eluted with Laemmli buffer heated at 95° C. for 7 minutes. CLOCK and BMAL1 were detected by monoclonal anti-FLAG M2 antibody (Sigma-Aldrich) and anti-BMAL1 (Santa Cruz Biotechnology) respectively. The amount of co-precipitated BMAL1 was normalized with the amount of precipitated CLOCK.
HEK 293T cells co-expressing wild type or F80A-K220A mutant FLAG-tagged Clock together with tag-free Bmal1 were lysed with ice-cold lysis buffer (50 mM Tris-HCl pH 7.7, 150 mM NaCl, 0.1% Triton X-100, 1 mM PMSF and protease inhibitor cocktail) and centrifuged at 15000×g at 4° C. for 20 minutes. DMSO and different concentrations of CLK8 were added to the whole cell lysate. […] CLOCK and BMAL1 were detected by monoclonal anti-FLAG M2 antibody (Sigma-Aldrich) and anti-BMAL1 (Santa Cruz Biotechnology) respectively. […]

CC1(C)CCc2c(cc(OCC(=O)Nc3ccccc3C(N)=O)c3c(-c4ccccc4)cc(=O)oc23)O1 [CLK8, 2-[2-({12,12-dimethyl-4-oxo-6-phenyl-3,11-dioxatricyclo [8.4.0.0,2,7]tetradeca-1,5,7,9-tetraen-8-yl}oxy)acetamido] benzamide]
CLOCK abundance in the nucleus (liver) (CLOCK, BMAL1 and CRY1): significantly low
CLOCK levels in whole liver cell lysate (CLOCK, BMAL1 and CRY1): decrease
cytosolic and nuclear BMAL1 and CRY1 (liver) (CLOCK, BMAL1 and CRY1): unaltered
levels of BMAL1 and CRY1 in whole liver cell lysate (CLOCK, BMAL1 and CRY1): unaltered
interaction between CLOCK-F80A-K220A and BMAL1 [1]: not affected
